# pIC50: −log10 of the molar value.
# Molecular target: ATX (Mus musculus (Mouse), UniProt Q9R1E6)
# Test: Mice serum ATX inhibitory activity (IC50 determination)
# Type: biochemical
# Procedure: ATX Inhibitory activity was determined in a biochemical or whole blood assay as described previously (Bretschneider, T. et al., SLAS Discov 2017, 22, 425). The biochemical reaction consisted of 50 mM Tris (pH 8.0), 3 mM KCl, 1 mM CaCl2, 1 mM Mg Cl2, […] NaCl and 0.1% bovine serum albumin, which was supplemented with 5 nM recombinant rat ATX, 5 μM 18:1 LPC and the test compound (0.1-10 μM). The reaction was stopped at 2 h by the addition of butanol, prior to the RapidFire-MS-based analysis.
# The whole blood assay consisted of 45 μL μL heparinized mice/rat whole blood and the test compound (0.12-100 μM). The reaction was stopped after 1 h at 37° C. by addition of 100 μL 40 mM disodium hydrogen phosphate buffer containing 30 mM citric acid (pH 4) and 1 μM 17:0 LPA (internal standard). Afterwards the samples were treated a described above and analysed by LC-MS/MS. The data was analyzed using graph pad prism (v 7.03) to arrive at the half-maximal inhibitory concentrations (IC50) of the test compounds.
row,pIC50,SMILES
1,7.04,"CC(C)[C@@H](NC(=O)c1cc(C(F)(F)F)ccc1F)C(=O)N1CCC2(CC1)C(=O)N(C)C(=O)C2c1ccccc1 (stereo partly drawn) [Compound 1, 2-fluoro-N-((2R)-3-methyl-1-(2-methyl-1,3-dioxo-4-phenyl-2,8-diazaspiro[4.5]decan-8-yl)-1-oxobutan-2-yl)-5-(trifluoromethyl)benzamide]"
2,7.16,"CC(C)[C@@H](NC(=O)c1cc(C(F)(F)F)ccc1F)C(=O)N1CCC2(CC1)C(=O)N(CCN)C(=O)C2c1ccccc1 (stereo partly drawn) [Compound 33, N-((2R)-1-(2-(2-aminoethyl)-1,3-dioxo-4-phenyl-2,8-diazaspiro[4.5]decan-8-yl)-3-methyl-1-oxobutan-2-yl)-2-fluoro-5-(trifluoromethyl)benzamide]"
3,8.40,"CC(C)[C@@H](NC(=O)c1cc(C(F)(F)F)ccc1F)C(=O)N1CCC2(CC1)C(=O)N(C)CC2c1ccccc1 (stereo partly drawn) [Compound 44, 2-fluoro-N-((2R)-3-methyl-1-(2-methyl-1-oxo-4-phenyl-2,8-diazaspiro[4.5]decan-8-yl)-1-oxobutan-2-yl)-5-(trifluoromethyl)benzamide]"
4,7.72,"CC(C)[C@@H](NC(=O)c1cc(C(F)(F)F)ccc1F)C(=O)N1CCC2(CC1)C(=O)NCC2c1ccccc1 (stereo partly drawn) [Compound 45, 2-fluoro-N-((2R)-3-methyl-1-oxo-1-(1-oxo-4-phenyl-2,8-diazaspiro[4.5]decan-8-yl)butan-2-yl)-5-(trifluoromethyl)benzamide]"
5,7.88,"CC(C)[C@@H](NC(=O)c1cc(C(F)(F)F)ccc1F)C(=O)N1CCC2(CC1)C(=O)N(C)CC2c1cccnc1 (stereo partly drawn) [Compound 56, 2-fluoro-N-((2R)-3-methyl-1-(2-methyl-1-oxo-4-(pyridin-3-yl)-2,8-diazaspiro[4.5]decan-8-yl)-1-oxobutan-2-yl)-5-(trifluoromethyl)benzamide]"
6,7.25,"CC(C)[C@@H](NC(=O)c1cc(C(F)(F)F)ccc1F)C(=O)N1CCC2(CC1)C(=O)NCC2c1cccnc1 (stereo partly drawn) [Compound 57, 2-fluoro-N-((2R)-3-methyl-1-oxo-1-(1-oxo-4-(pyridin-3-yl)-2,8-diazaspiro[4.5]decan-8-yl)butan-2-yl)-5-(trifluoromethyl)benzamide]"
7,7.23,"CC(C)[C@@H](NC(=O)c1cc(C(F)(F)F)ccc1F)C(=O)N1CCC2(CC1)C(=O)N(C)CC2c1ccc2[nH]ncc2c1 (stereo partly drawn) [Compound 58, N-((2R)-1-(4-(1H-indazol-5-yl)-2-methyl-1-oxo-2,8-diazaspiro[4.5]decan-8-yl)-3-methyl-1-oxobutan-2-yl)-2-fluoro-5-(trifluoromethyl)benzamide]"
8,8.18,"CC(C)[C@@H](NC(=O)c1cc(C(F)(F)F)ccc1F)C(=O)N1CCC2(CC1)CN(C)CC2c1ccccc1 (stereo partly drawn) [Compound 62, 2-fluoro-N-((2R)-3-methyl-1-(2-methyl-4-phenyl-2,8-diazaspiro[4.5]decan-8-yl)-1-oxobutan-2-yl)-5-(trifluoromethyl)benzamide]"
9,7.87,"CC(C)[C@@H](NC(=O)c1cc(C(F)(F)F)ccc1F)C(=O)N1CCC2(CC1)CN(C)CC2c1cccnc1 (stereo partly drawn) [Compound 64, 2-fluoro-N-((2R)-3-methyl-1-(2-methyl-4-(pyridin-3-yl)-2,8-diazaspiro[4.5]decan-8-yl)-1-oxobutan-2-yl)-5-(trifluoromethyl)benzamide]"
10,8.16,"CC(C)[C@@H](NC(=O)c1cc(C(F)(F)F)ccc1F)C(=O)N1CCC2(CC1)CN(C)CC2c1ccc2[nH]ncc2c1 (stereo partly drawn) [Compound 65, N-((2R)-1-(4-(1H-indazol-5-yl)-2-methyl-2,8-diazaspiro[4.5]decan-8-yl)-3-methyl-1-oxobutan-2-yl)-2-fluoro-5-(trifluoromethyl)benzamide]"
11,7.65,"CC(C)[C@@H](NC(=O)c1cc(C(F)(F)F)ccc1F)C(=O)N1CCC2(CC1)C(=O)NCC2c1ccc(F)cc1 (stereo partly drawn) [Compound 102, 2-fluoro-N-((2R)-1-(4-(4-fluorophenyl)-1-oxo-2,8-diazaspiro[4.5]decan-8-yl)-3-methyl-1-oxobutan-2-yl)-5-(trifluoromethyl)benzamide]"
12,8.16,"CC(C)[C@@H](NC(=O)c1cc(C(F)(F)F)ccc1F)C(=O)N1CCC2(CC1)C(=O)N(C)CC2c1ccc(F)cc1 (stereo partly drawn) [Compound 103, 2-fluoro-N-((2R)-1-(4-(4-fluorophenyl)-2-methyl-1-oxo-2,8-diazaspiro[4.5]decan-8-yl)-3-methyl-1-oxobutan-2-yl)-5-(trifluoromethyl)benzamide]"
13,7.93,"CCN1CC(c2ccc(F)cc2)C2(CCN(C(=O)[C@H](NC(=O)c3cc(C(F)(F)F)ccc3F)C(C)C)CC2)C1=O (stereo partly drawn) [Compound 104, N-((2R)-1-(2-ethyl-4-(4-fluorophenyl)-1-oxo-2,8-diazaspiro[4.5]decan-8-yl)-3-methyl-1-oxobutan-2-yl)-2-fluoro-5-(trifluoromethyl)benzamide]"
14,7.59,"COc1ccc(F)c(C(=O)N[C@@H](C(=O)N2CCC3(CC2)C(=O)N(C)CC3c2ccccc2)C(C)C)c1 (stereo partly drawn) [Compound 105, 2-fluoro-5-methoxy-N-((2R)-3-methyl-1-(2-methyl-1-oxo-4-phenyl-2,8-diazaspiro[4.5]decan-8-yl)-1-oxobutan-2-yl)benzamide]"
15,7.25,"CC(C)[C@@H](NC(=O)c1cc(C(F)(F)F)ccc1F)C(=O)N1CCC2(CC1)C(=O)N(C)C=C2c1ccccc1 [Compound 106, (R)-2-fluoro-N-(3-methyl-1-(2-methyl-1-oxo-4-phenyl-2,8-diazaspiro[4.5]dec-3-en-8-yl)-1-oxobutan-2-yl)-5-(trifluoromethyl)benzamide]"
16,7.18,"CC(C)[C@@H](NC(=O)c1ccccc1F)C(=O)N1CCC2(CC1)C(=O)N(C)CC2c1ccccc1 (stereo partly drawn) [Compound 107, 2-fluoro-N-((2R)-3-methyl-1-(2-methyl-1-oxo-4-phenyl-2,8-diazaspiro[4.5]decan-8-yl)-1-oxobutan-2-yl)benzamide]"
17,7.79,"CC(C)[C@@H](NC(=O)c1cccc(C(F)(F)F)c1)C(=O)N1CCC2(CC1)C(=O)N(C)CC2c1ccccc1 (stereo partly drawn) [Compound 108, N-((2R)-3-methyl-1-(2-methyl-1-oxo-4-phenyl-2,8-diazaspiro[4.5]decan-8-yl)-1-oxobutan-2-yl)-3-(trifluoromethyl)benzamide]"
18,8.42,"CC(C)[C@@H](NC(=O)c1cc(OC(F)(F)F)ccc1F)C(=O)N1CCC2(CC1)C(=O)N(C)CC2c1ccccc1 (stereo partly drawn) [Compound 110, 2-fluoro-N-((2R)-3-methyl-1-(2-methyl-1-oxo-4-phenyl-2,8-diazaspiro[4.5]decan-8-yl)-1-oxobutan-2-yl)-5-(trifluoromethoxy)benzamide]"
19,7.47,"CC(C)[C@@H](NC(=O)c1cc(C(F)(F)F)ccc1F)C(=O)N1CCC2(CC1)C(=O)N(C(C)C)CC2c1ccc(F)cc1 (stereo partly drawn) [Compound 111, 2-fluoro-N-((2R)-1-(4-(4-fluorophenyl)-2-isopropyl-1-oxo-2,8-diazaspiro[4.5]decan-8-yl)-3-methyl-1-oxobutan-2-yl)-5-(trifluoromethyl)benzamide]"
20,7.13,"CC(C)[C@@H](NC(=O)c1cc(C(F)(F)F)ccc1F)C(=O)N1CCC2(CC1)C(=O)N(CC1CC1)CC2c1ccc(F)cc1 (stereo partly drawn) [Compound 112, N-((2R)-1-(2-(cyclopropylmethyl)-4-(4-fluorophenyl)-1-oxo-2,8-diazaspiro[4.5]decan-8-yl)-3-methyl-1-oxobutan-2-yl)-2-fluoro-5-(trifluoromethyl)benzamide]"
21,6.99,"CC(C)[C@@H](NC(=O)c1cc(C(F)(F)F)ccc1F)C(=O)N1CCC2(CC1)C(=O)N(CC1CC1)CC2c1cccnc1 (stereo partly drawn) [Compound 113, N-((2R)-1-(2-(cyclopropylmethyl)-1-oxo-4-(pyridin-3-yl)-2,8-diazaspiro[4.5]decan-8-yl)-3-methyl-1-oxobutan-2-yl)-2-fluoro-5-(trifluoromethyl)benzamide]"
22,8.77,"COc1ccc(C2CN(C)C(=O)C23CCN(C(=O)[C@H](NC(=O)c2cc(C(F)(F)F)ccc2F)C(C)C)CC3)cc1 (stereo partly drawn) [Compound 114, 2-fluoro-N-((2R)-1-(4-(4-methoxyphenyl)-2-methyl-1-oxo-2,8-diazaspiro[4.5]decan-8-yl)-3-methyl-1-oxobutan-2-yl)-5-(trifluoromethyl)benzamide]"
23,7.13,"CC(C)[C@@H](NC(=O)c1cc(C(F)(F)F)ccc1F)C(=O)N1CCC2(CC1)OC(=O)NC2c1ccccc1 (stereo partly drawn) [Compound 115, 2-fluoro-N-((2R)-3-methyl-1-oxo-1-(2-oxo-4-phenyl-1-oxa-3,8-diazaspiro[4.5]decan-8-yl)butan-2-yl)-5-(trifluoromethyl)benzamide]"
24,8.15,"CC(C)[C@@H](NC(=O)c1cc(C(F)(F)F)ccc1F)C(=O)N1CCC2(CC1)CN(C)CC2c1ccc(F)cc1 (stereo partly drawn) [Compound 119, 2-fluoro-N-((2R)-1-(4-(4-fluorophenyl)-2-methyl-2,8-diazaspiro[4.5]decan-8-yl)-3-methyl-1-oxobutan-2-yl)-5-(trifluoromethyl)benzamide]"
25,7.35,"CC(C)[C@@H](NC(=O)c1cc(C(F)(F)F)ccc1F)C(=O)N1CCC2(CC1)CN(C(C)C)CC2c1ccc(F)cc1 (stereo partly drawn) [Compound 120, 2-fluoro-N-((2R)-1-(4-(4-fluorophenyl)-2-isopropyl-2,8-diazaspiro[4.5]decan-8-yl)-3-methyl-1-oxobutan-2-yl)-5-(trifluoromethyl)benzamide]"
26,7.07,"CC(C)[C@@H](NC(=O)c1cc(C(F)(F)F)ccc1F)C(=O)N1CCC2(CC1)CN(CC1CC1)CC2c1ccc(F)cc1 (stereo partly drawn) [Compound 121, N-((2R)-1-(2-(cyclopropylmethyl)-4-(4-fluorophenyl)-2,8-diazaspiro[4.5]decan-8-yl)-3-methyl-1-oxobutan-2-yl)-2-fluoro-5-(trifluoromethyl)benzamide]"

# Source: patent US20240327407A1, “NOVEL INHIBITORS OF AUTOTAXIN” (CADILA HEAL THCARE LIMITED, priority 2021, published 2024)
